Measured values taken from the NIST ThermoML archive (doi:10.1021/je060490w).

Columns and labels:
[1] = for surface tension liquid-gas: Pendant drop shape; for mass density: 101.33 kPa, Liquid
[2] = xn = mol fraction of the nth substance listed; conditions: Pendant drop shape

Cc1cc(C)cc(C)c1 [1,3,5-trimethylbenzene]
[1]
Conditions	mass density [kg/m3]	surface tension liquid-gas [mN/m]
298.15 K	861.12	28.05
308.15 K	852.94	27.21
313.15 K	848.82	26.78

Cc1cc(C)cc(C)c1 [1,3,5-trimethylbenzene] + CCOC(C)OCC
[2], x2 = 0
Conditions	surface tension liquid-gas [mN/m]
298.15 K	28.05
308.15 K	27.21
313.15 K	26.78

Cc1cc(C)cc(C)c1 [1,3,5-trimethylbenzene] + COC(C)(C)OC
[2], x2 = 0
Conditions	surface tension liquid-gas [mN/m]
298.15 K	28.05
308.15 K	27.21
313.15 K	26.78

COC(C)(C)OC [3,3-dimethyl-2,4-dioxapentane]
[1]
Conditions	mass density [kg/m3]	surface tension liquid-gas [mN/m]
298.15 K	845.09	21.46
308.15 K	834.41	20.43
313.15 K	828.99	19.91

COC(C)(C)OC [3,3-dimethyl-2,4-dioxapentane] + Cc1cc(C)cc(C)c1
[2]
Conditions	surface tension liquid-gas [mN/m]
298.15 K, x1 = 0.05	27.6
298.15 K, x1 = 0.1002	27.14
298.15 K, x1 = 0.1494	26.72
298.15 K, x1 = 0.2001	26.28
298.15 K, x1 = 0.252	25.88
298.15 K, x1 = 0.3001	25.47
298.15 K, x1 = 0.3496	25.1
298.15 K, x1 = 0.3998	24.7
298.15 K, x1 = 0.4525	24.33
298.15 K, x1 = 0.4998	23.98
298.15 K, x1 = 0.5497	23.62
298.15 K, x1 = 0.5996	23.26
298.15 K, x1 = 0.6506	22.93
298.15 K, x1 = 0.7002	22.64
298.15 K, x1 = 0.7503	22.37
298.15 K, x1 = 0.7993	22.11
298.15 K, x1 = 0.8511	21.89
298.15 K, x1 = 0.8986	21.7
298.15 K, x1 = 0.9494	21.57
298.15 K, x1 = 1	21.46
308.15 K, x1 = 0.0562	26.65
308.15 K, x1 = 0.0995	26.21
308.15 K, x1 = 0.1481	25.77
308.15 K, x1 = 0.2023	25.29
308.15 K, x1 = 0.2502	24.87
308.15 K, x1 = 0.3002	24.49
308.15 K, x1 = 0.3497	24.06
308.15 K, x1 = 0.3982	23.71
308.15 K, x1 = 0.4499	23.31
308.15 K, x1 = 0.4964	22.95
308.15 K, x1 = 0.5493	22.54
308.15 K, x1 = 0.6001	22.17
308.15 K, x1 = 0.6502	21.85
308.15 K, x1 = 0.7006	21.52
308.15 K, x1 = 0.7454	21.27
308.15 K, x1 = 0.7999	20.99
308.15 K, x1 = 0.8492	20.74
308.15 K, x1 = 0.8998	20.57
308.15 K, x1 = 0.9492	20.48
308.15 K, x1 = 1	20.43
313.15 K, x1 = 0.0511	26.21
313.15 K, x1 = 0.1023	25.71
313.15 K, x1 = 0.1503	25.26
313.15 K, x1 = 0.2014	24.79
313.15 K, x1 = 0.2506	24.39
313.15 K, x1 = 0.3013	23.95
313.15 K, x1 = 0.3498	23.56
313.15 K, x1 = 0.396	23.19
313.15 K, x1 = 0.4486	22.77
313.15 K, x1 = 0.5014	22.36
313.15 K, x1 = 0.5508	21.99
313.15 K, x1 = 0.5931	21.68
313.15 K, x1 = 0.6488	21.31
313.15 K, x1 = 0.6988	20.99
313.15 K, x1 = 0.7499	20.66
313.15 K, x1 = 0.7994	20.4
313.15 K, x1 = 0.8388	20.24
313.15 K, x1 = 0.8976	20
313.15 K, x1 = 0.944	19.95
313.15 K, x1 = 1	19.91

COC(C)(C)OC [3,3-dimethyl-2,4-dioxapentane] + Cc1ccc(C)c(C)c1
[2]
Conditions	surface tension liquid-gas [mN/m]
298.15 K, x1 = 0.0523	28.69
298.15 K, x1 = 0.0998	28.17
298.15 K, x1 = 0.1497	27.62
298.15 K, x1 = 0.1996	27.12
298.15 K, x1 = 0.2517	26.6
298.15 K, x1 = 0.3009	26.13
298.15 K, x1 = 0.3494	25.68
298.15 K, x1 = 0.3987	25.24
298.15 K, x1 = 0.4502	24.79
298.15 K, x1 = 0.4994	24.37
298.15 K, x1 = 0.5498	23.95
298.15 K, x1 = 0.5996	23.55
298.15 K, x1 = 0.6508	23.17
298.15 K, x1 = 0.6997	22.82
298.15 K, x1 = 0.7498	22.51
298.15 K, x1 = 0.7992	22.24
298.15 K, x1 = 0.8508	22
298.15 K, x1 = 0.8997	21.79
298.15 K, x1 = 0.9489	21.62
298.15 K, x1 = 1	21.46
308.15 K, x1 = 0.0515	27.59
308.15 K, x1 = 0.0998	27.02
308.15 K, x1 = 0.1499	26.47
308.15 K, x1 = 0.2001	25.95
308.15 K, x1 = 0.2475	25.5
308.15 K, x1 = 0.302	24.97
308.15 K, x1 = 0.3512	24.53
308.15 K, x1 = 0.3995	24.12
308.15 K, x1 = 0.4485	23.66
308.15 K, x1 = 0.4989	23.23
308.15 K, x1 = 0.5542	22.77
308.15 K, x1 = 0.5998	22.4
308.15 K, x1 = 0.6518	22.02
308.15 K, x1 = 0.6987	21.69
308.15 K, x1 = 0.7455	21.44
308.15 K, x1 = 0.7962	21.11
308.15 K, x1 = 0.851	20.86
308.15 K, x1 = 0.8973	20.71
308.15 K, x1 = 0.9456	20.55
308.15 K, x1 = 1	20.43
313.15 K, x1 = 0.0506	27.03
313.15 K, x1 = 0.0996	26.42
313.15 K, x1 = 0.1509	25.86
313.15 K, x1 = 0.1994	25.36
313.15 K, x1 = 0.2511	24.87
313.15 K, x1 = 0.3032	24.38
313.15 K, x1 = 0.3475	23.95
313.15 K, x1 = 0.3981	23.52
313.15 K, x1 = 0.4501	23.07
313.15 K, x1 = 0.5	22.66
313.15 K, x1 = 0.5487	22.25
313.15 K, x1 = 0.5993	21.84
313.15 K, x1 = 0.6504	21.45
313.15 K, x1 = 0.6993	21.12
313.15 K, x1 = 0.7486	20.8
313.15 K, x1 = 0.7987	20.51
313.15 K, x1 = 0.8417	20.31
313.15 K, x1 = 0.8929	20.12
313.15 K, x1 = 0.9487	19.97
313.15 K, x1 = 1	19.91
